The values that follow come from PMC4086741 (Molecular Pharmaceutics, 2014).

For series [1], the target named is T1, ABCG2 (Homo sapiens, UniProt Q9UNQ0).
T1 sequence (Q9UNQ0 1-655): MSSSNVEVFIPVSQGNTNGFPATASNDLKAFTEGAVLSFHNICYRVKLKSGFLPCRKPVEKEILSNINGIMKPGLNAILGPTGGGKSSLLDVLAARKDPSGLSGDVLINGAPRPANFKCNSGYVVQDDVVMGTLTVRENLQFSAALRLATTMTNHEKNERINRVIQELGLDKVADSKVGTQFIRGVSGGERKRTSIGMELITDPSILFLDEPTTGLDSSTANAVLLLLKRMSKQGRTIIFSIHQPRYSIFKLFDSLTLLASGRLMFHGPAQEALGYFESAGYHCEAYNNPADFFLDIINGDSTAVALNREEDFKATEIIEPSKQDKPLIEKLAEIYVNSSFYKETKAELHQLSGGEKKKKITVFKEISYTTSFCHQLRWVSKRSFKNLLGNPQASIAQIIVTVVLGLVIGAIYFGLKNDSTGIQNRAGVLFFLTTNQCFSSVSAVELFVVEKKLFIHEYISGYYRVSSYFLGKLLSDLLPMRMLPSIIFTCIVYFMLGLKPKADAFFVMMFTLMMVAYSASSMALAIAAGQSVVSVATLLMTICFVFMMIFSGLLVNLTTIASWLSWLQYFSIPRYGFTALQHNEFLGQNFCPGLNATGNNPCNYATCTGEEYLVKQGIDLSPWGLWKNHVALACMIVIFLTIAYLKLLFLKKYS
Description: Mitoxantrone transport. To be noted: ABCG2-overexpressing MCF7-FLV1000 cells, probe mitoxantrone (5 μM).

In series [2] the target is P-gp (Homo sapiens, UniProt P08183). Nature of the series: Calcein-AM transport. To be noted: P-gp-overexpressing KB-V1 cells, probe calcein-AM (0.5 μg/mL).
Sequence of P-gp (P08183 whole entry): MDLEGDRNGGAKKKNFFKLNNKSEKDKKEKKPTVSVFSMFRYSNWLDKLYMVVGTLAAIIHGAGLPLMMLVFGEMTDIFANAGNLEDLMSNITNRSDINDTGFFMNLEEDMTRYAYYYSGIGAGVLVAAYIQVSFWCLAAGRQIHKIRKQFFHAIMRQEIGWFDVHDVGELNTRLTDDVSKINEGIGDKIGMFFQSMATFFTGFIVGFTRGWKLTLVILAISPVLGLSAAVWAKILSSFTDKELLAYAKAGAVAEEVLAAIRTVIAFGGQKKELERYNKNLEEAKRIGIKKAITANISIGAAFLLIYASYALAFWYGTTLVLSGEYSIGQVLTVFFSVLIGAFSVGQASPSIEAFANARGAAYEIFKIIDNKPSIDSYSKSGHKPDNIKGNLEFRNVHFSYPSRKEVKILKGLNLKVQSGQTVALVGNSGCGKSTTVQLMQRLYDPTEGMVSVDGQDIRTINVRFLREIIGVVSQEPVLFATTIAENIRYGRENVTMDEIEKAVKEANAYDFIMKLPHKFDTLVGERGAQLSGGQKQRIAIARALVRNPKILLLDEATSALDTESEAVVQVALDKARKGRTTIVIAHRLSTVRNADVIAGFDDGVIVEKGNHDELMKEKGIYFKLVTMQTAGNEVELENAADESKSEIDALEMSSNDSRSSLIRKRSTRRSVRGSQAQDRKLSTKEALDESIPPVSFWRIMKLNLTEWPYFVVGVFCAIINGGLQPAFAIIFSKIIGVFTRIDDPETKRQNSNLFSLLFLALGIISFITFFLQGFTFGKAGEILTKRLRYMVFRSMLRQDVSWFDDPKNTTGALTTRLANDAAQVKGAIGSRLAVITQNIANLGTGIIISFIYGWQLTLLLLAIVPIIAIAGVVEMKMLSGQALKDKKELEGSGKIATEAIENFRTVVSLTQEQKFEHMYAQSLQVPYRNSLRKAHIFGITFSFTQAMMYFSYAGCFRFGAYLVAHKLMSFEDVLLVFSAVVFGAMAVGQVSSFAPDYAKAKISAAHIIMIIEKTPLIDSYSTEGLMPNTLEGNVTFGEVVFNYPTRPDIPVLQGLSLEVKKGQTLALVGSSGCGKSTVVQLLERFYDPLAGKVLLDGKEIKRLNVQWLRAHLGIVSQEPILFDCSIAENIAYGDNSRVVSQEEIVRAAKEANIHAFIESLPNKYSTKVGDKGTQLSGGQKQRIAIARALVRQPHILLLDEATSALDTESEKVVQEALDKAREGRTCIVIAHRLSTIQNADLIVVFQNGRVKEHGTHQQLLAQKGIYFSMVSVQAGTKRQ

As a reminder, the IC20 is the concentration at which the effect reaches the 20% level. As for `Cc1cn(-c2cc(NC(=O)c3ccc(C)c(Nc4nccc(-c5cccnc5)n4)c3)cc(C(F)(F)F)c2)cn1` [nilotinib, Nilotinib], the 20% effect concentration (IC20) in series [1] is 240 nM; in series [2] it was 1160 nM.
